# Non-standard residues stand in square brackets, D forms with d. Residues, ends and D or L forms follow the SMILES beside them. *: point of attachment. Hydrocinnamoyl = O=C(CCc1ccccc1)*; PhAc = O=C(Cc1ccccc1)*; Bz = O=C(c1ccccc1)*
# What was measured:
# [1] = test system: thrombin clotting time; assay: Ex vivo clotting time prolongation after oral dosing of rats; type: in vivo, rat; conditions: rats dosed orally (p.o.), three per group; clotting time measured ex vivo
# Method: Human citrated plasma obtained from human volunteers or citrated plasma obtained from dosed animals (prepared as described below). 25 NIH Units/ml human α-thrombin in thrombin buffer for use with rat plasma. 10 NIH Units/ml human α-thrombin in thrombin buffer for use with human plasma. Dosing: Test compound was prepared just prior to dosing. Routinely the drugs are dissolved in water. Occasionally other vehicles are used, such as PEQ-200 stock solutions are vortex mixed and animals are dosed p.o. using a 3 ml syringe with an 18-19 gauge oral gavage needle or i.p. injection. Blood Drawing for Rats: After the appropriate time period, the animals were ether-anesthetized, and blood was drawn by cardiac puncture using 333 μl of 3.8% sodium citrate per 3 ml blood. […] Clotting times were determined by pipetting 0.1 ml of Owren's buffer (pre-warmed to 37° C.) and 0.1 ml of human or rat plasma into yellow sample cuvettes. For studies with human plasma 10 U/ml human thrombin (10 ml) was placed in the reservoir assembly station of the MLA 700. (Medical Laboratory Automation, Electra 700 Reservoir Assembly). For rat studies, the human thrombin concentration was 25 U/ml. The cuvettes were vortexed and then placed on the MLA 700 sample wheel. The coagulation timer (MLA 700) automatically dispenses 0.1 ml human thrombin into the sample in each cuvette. Detection of the fibrin clot was determined optically by the MLA 700. In separate studies, compounds were dosed orally (p.o.) to three rats in each study group. […] Consequently, they are useful in controlling blood coagulation in mammals including humans.
# [2] = molecular target: T1, human thrombin (Homo sapiens, UniProt P00734); assay: Thrombin clotting time in pooled human plasma, initial effect before incubation; type: biochemical; conditions: 3.3 U/ml human thrombin, 37° C.
# T1 construct: 10U/ml human thrombin
# Method: Clotting times were measured optically using the Medical Laboratory Automation Electra 700 (MLA 700). Test cuvettes contained 0.1 ml of pre-warmed Owren's buffer, 0.1 ml of the human plasma and 1.2 and 3.0 μl of the test compounds dissolved in water. The cuvette was then vortex mixed and placed on the MLA 700 sample wheel. Clotting time was determined at 37° C. after the addition of 0.1 ml of 10U/ml human thrombin (final concentration=3.3 U/ml).
# [3] = Clotting time after incubation of compound in water at 40° C. (stability); type: physicochemical; conditions: 50 μM stock in deionized water, 0.25-24 hours, FIG. 1
# Method: CLOTTING TIME AFTER INCUBATION OF COMPOUND IN WATER AT 40° C.
# Fresh blood was drawn from two human donors into vacutainer tubes containing buffered sodium citrate (16 mg sodium citrate and 2.1 mg citric acid per 4.5 ml of blood). The tubes were centrifugated immediately at 1920×g for 15 minutes to obtain fresh platelet poor plasma. The plasma was pooled and 10 ml aliquots were divided into three test tubes. Two tubes were frozen and maintained at -20° C. for future use and one tube was kept on ice throughout testing.
# The compound of Example 14 and D-Phe-Pro-Arg aldehyde: H2 SO4 were prepared as stock solutions (50 μM) in deionized water. […] After the initial effect of these compounds on clotting time was determined, the compounds were placed in a 40° C. water bath for various time intervals (from 0.25-24 hours) and aliquots were withdrawn to determine the effect of the incubation on clotting time.
# Clotting times were measured optically using the Medical Laboratory Automation Electra 700 (MLA 700). Test cuvettes contained 0.1 ml of pre-warmed Owren's buffer, 0.1 ml of the human plasma and 1.2 and 3.0 μl of the test compounds dissolved in water. […] Clotting time was determined at 37° C. after the addition of 0.1 ml of 10U/ml human thrombin (final concentration=3.3 U/ml).
# The stability of the compounds of the present invention were measured or described in the biological procedures. […]
Structure (SMILES),DTT [1],final concentration which initially caused prolongation of clotting time to approximately three times control value [2] [µM],stability in water (effect of incubation on clotting time) [3]
"Cl.N=C(N)NCCC[C@@H](C=O)NC(=O)[C@@H]1CCCN1C(=O)Cc1ccccc1 [Example 12, N^α -[N-Phenylacetyl-L-prolyl]-L-arginine aldehyde Hydrochloride] (PhAc-Pro-Arg-aldehyde)",100 mg/kg,–,–
"Cl.N=C(N)NCCC[C@@H](C=O)NC(=O)[C@@H]1CCCN1C(=O)c1ccccc1 [Example 9, Nα-[N-Benzoyl-L-prolyl]-L-arginine aldehyde Hydrochloride] (Bz-Pro-Arg-aldehyde)",150 mg/kg,–,–
"Cl.N=C(N)NCCC[C@@H](C=O)NC(=O)[C@@H]1CCCN1C(=O)CCC1CCCCC1 [Example 13, N^α -[N-(3-Cyclohexylpropanoyl)-L-prolyl]-L-arginine aldehyde Hydrochloride]",100 mg/kg,–,–
"Cl.N=C(N)NCCC[C@@H](C=O)NC(=O)[C@@H]1CCCN1C(=O)CCc1ccccc1 [Example 14, N^α -[N-(3-Phenylpropanoyl)-L-prolyl]-L-arginine aldehyde Hydrochloride] (Hydrocinnamoyl-Pro-Arg-aldehyde)",60 mg/kg,0.2,more stable than the corresponding D-phe compound
"Cl.Cl.N=C(N)NCCC[C@@H](C=O)NC(=O)[C@@H]1CCCN1C(=O)CCc1cccnc1 [Example 8, N^α [N-(3-(3-Pyridyl)propanoyl)-L-Prolyl]-L-arginine aldehyde Dihydrochloride]",~ 100 mg/kg,–,–
"Cl.Cl.N=C(N)NCCC[C@@H](C=O)NC(=O)[C@@H]1CCCN1C(=O)[C@@H](Cc1ccccc1)NC(=O)CN [Example 16, N^α -[Glycl-D-phenylalanyl-L-prolyl]-L-arginine aldehyde Dihydrochloride] (H-G[dF]PR-aldehyde)",50 mg/kg,–,–
"C[C@H](NC(=O)[C@H](N)Cc1ccccc1)C(=O)N[C@H](C=O)CCCNC(=N)N.O=S(=O)(O)O [Example 19, N^α -[D-Phenylalanyl-L-alanyl]-L-arginine aldehyde Sulfate] (H-[dF]-Ala-Arg-aldehyde)",110 mg/kg,–,–
"N=C(N)NCCC[C@@H](C=O)NC(=O)[C@@H]1CCCN1C(=O)[C@H](N)Cc1ccccc1 [D-Phe-Pro-Arg aldehyde, D-Phe-Pro-Arg aldehyde: H2 SO4, reference compound]",–,0.5,–

# Reference: patent publication US5380713A, “Peptide aldehydes as antithrombotic agents” (Bristol-Myers Squibb Company, priority 1994, dated 1995)
